ChEMBL document CHEMBL5131474, “Resveratrol inhibited hepatocyte apoptosis and alleviated liver fibrosis through miR-190a-5p /HGF axis” (2022)
Active and inactive are the calls of the source. The rule behind the calls is not given here.

What was measured:
[1] = test system: Hepatocyte; assay: Induction of apoptosis in TGF-beta1-stimulated C57/B6J mouse primary hepatocytes assessed as reversal of miR-190a-5p inhibitor induced decrease in cleaved-caspase 3 expression at 10 uM by Western blot analysis; assay type: functional, cell-based
[2] = test system: Hepatocyte; assay: Inhibition of TGF-beta1 induced apoptosis in C57/B6J mouse primary hepatocytes assessed as early apoptotic cells at 10 uM in presence of miR-190a-5p inhibitor by Annexin-V-FITC-H and PI staining based flow cytometry analysis (reference value: 18.90 %); assay type: functional; parameters: scale not given: the % may be the effect or the level left
[3] = test system: Hepatocyte; assay: Inhibition of TGF-beta1 induced apoptosis in C57/B6J mouse primary hepatocytes assessed as live cells at 10 uM in presence of miR-190a-5p inhibitor by Annexin-V-FITC-H and PI staining based flow cytometry analysis (reference value: 61.65 %); assay type: functional; parameters: scale not given: the % may be the effect or the level left
[4] = test system: Hepatocyte; assay: Induction of apoptosis in TGF-beta1-stimulated C57/B6J mouse primary hepatocytes assessed as reversal of miR-190a-5p inhibitor induced increase in Bcl-2 expression at 10 uM by Western blot analysis; assay type: functional, cell-based
[5] = test system: Hepatocyte; assay: Downregulation of TGF-beta1 and miR-190a-5p inhibitor induced HGF protein expression C57/B6J mouse primary hepatocytes at 10 uM by Western blot analysis; assay type: functional, cell-based
[6] = test system: Hepatocyte; assay: Downregulation of TGF-beta1 and miR-190a-5p inhibitor induced HGF mRNA expression in C57/B6J mouse primary hepatocytes at 10 uM by qRT-PCR analysis; assay type: functional, cell-based
[7] = test system: Hepatocyte; assay: Inhibition of TGF-beta1 induced apoptosis in C57/B6J mouse primary hepatocytes assessed as dead cells at 10 uM in presence of miR-190a-5p inhibitor by Annexin-V-FITC-H and PI staining based flow cytometry analysis (reference value: 5.49 %); assay type: functional; parameters: scale not given: the % may be the effect or the level left
[8] = test system: Hepatocyte; assay: Inhibition of TGF-beta1 induced apoptosis in C57/B6J mouse primary hepatocytes assessed as late apoptotic cells at 10 uM in presence of miR-190a-5p inhibitor by Annexin-V-FITC-H and PI staining based flow cytometry analysis (reference value: 13.96 %); assay type: functional; parameters: scale not given: the % may be the effect or the level left
[9] = test system: Hepatocyte; assay: Inhibition of TGF-beta1 induced apoptosis in C57/B6J mouse primary hepatocytes assessed as early apoptotic cells at 50 uM by Annexin-V-FITC-H and PI staining based flow cytometry analysis (reference value: 18.71 %); assay type: functional; parameters: scale not given: the % may be the effect or the level left
[10] = test system: Hepatocyte; assay: Inhibition of TGF-beta1 induced apoptosis in C57/B6J mouse primary hepatocytes assessed as decrease in cleaved-caspase-3 expression at 10 to 50 uM by Western blot analysis; assay type: functional, cell-based; conditions: dose 10-50 µM
[11] = test system: Hepatocyte; assay: Inhibition of TGF-beta1 induced apoptosis in C57/B6J mouse primary hepatocytes assessed as dead cells at 50 uM by Annexin-V-FITC-H and PI staining based flow cytometry analysis (reference value: 3.09 %); assay type: functional; parameters: scale not given: the % may be the effect or the level left
[12] = test system: Hepatocyte; assay: Inhibition of TGF-beta1 induced apoptosis in C57/B6J mouse primary hepatocytes assessed as dead cells by Annexin-V-FITC-H and PI staining based flow cytometry analysis (reference value: 3.68 %); assay type: functional; parameters: scale not given: the % may be the effect or the level left
[13] = test system: Mus musculus; assay: Antifibrotic activity in CCL-4 induced liver fibrosis C57/B6J mouse model assessed as reduction in COL1A1 mRNA expression at 100 mg/kg/day, ip measured after 72 hrs post last dose by qRT-PCR analysis; assay type: functional, organism-based
[14] = test system: Hepatocyte; assay: Downregulation of miR-190a-5p expression in TGF-beta induced C57/B6J mouse primary hepatocytes at 10 to 50 uM incubated for 4 hrs by qRT-PCR analysis; assay type: functional, cell-based; conditions: dose 10-50 µM
[15] = test system: Hepatocyte; assay: Inhibition of TGF-beta1 induced apoptosis in C57/B6J mouse primary hepatocytes assessed as live cells in presence of miR-190a-5p mimic by Annexin-V-FITC-H and PI staining based flow cytometry analysis (reference value: 64.40 %); assay type: functional; parameters: scale not given: the % may be the effect or the level left
[16] = test system: Hepatocyte; assay: Inhibition of TGF-beta1 induced apoptosis in C57/B6J mouse primary hepatocytes assessed as increase in Bcl-2 expression at 10 to 50 uM by Western blot analysis; assay type: functional, cell-based; conditions: dose 10-50 µM
[17] = test system: Hepatocyte; assay: Inhibition of TGF-beta1 induced apoptosis in C57/B6J mouse primary hepatocytes assessed as late apoptotic cells in presence of miR-190a-5p mimic by Annexin-V-FITC-H and PI staining based flow cytometry analysis (reference value: 12.03 %); assay type: functional; parameters: scale not given: the % may be the effect or the level left
[18] = test system: Hepatocyte; assay: Inhibition of TGF-beta1 induced apoptosis in C57/B6J mouse primary hepatocytes assessed as dead cells in presence of miR-190a-5p mimic by Annexin-V-FITC-H and PI staining based flow cytometry analysis (reference value: 3.68 %); assay type: functional; parameters: scale not given: the % may be the effect or the level left
[19] = test system: Hepatocyte; assay: Inhibition of TGF-beta1 induced apoptosis in C57/B6J mouse primary hepatocytes assessed as early apoptotic cells in presence of miR-190a-5p mimic by Annexin-V-FITC-H and PI staining based flow cytometry analysis (reference value: 19.89 %); assay type: functional; parameters: scale not given: the % may be the effect or the level left
[20] = test system: Hepatocyte; assay: Inhibition of TGF-beta1 induced apoptosis in C57/B6J mouse primary hepatocytes assessed as late apoptotic cells at 10 uM by Annexin-V-FITC-H and PI staining based flow cytometry analysis (reference value: 12.12 %); assay type: functional; parameters: scale not given: the % may be the effect or the level left
[21] = test system: Hepatocyte; assay: Inhibition of TGF-beta1 induced apoptosis in C57/B6J mouse primary hepatocytes assessed as late apoptotic cells at 50 uM by Annexin-V-FITC-H and PI staining based flow cytometry analysis (reference value: 12.12 %); assay type: functional; parameters: scale not given: the % may be the effect or the level left
[22] = test system: Mus musculus; assay: Antifibrotic activity in CCL-4 induced liver fibrosis C57/B6J mouse model assessed as reduction in miR-190a-5p expression in liver at 100 mg/kg/day, ip measured after 72 hrs post last dose by qRT-PCR analysis; assay type: functional, organism-based
[23] = test system: Hepatocyte; assay: Inhibition of TGF-beta1 induced apoptosis in C57/B6J mouse primary hepatocytes assessed as live cells at 25 uM by Annexin-V-FITC-H and PI staining based flow cytometry analysis (reference value: 66.08 %); assay type: functional; parameters: scale not given: the % may be the effect or the level left
[24] = test system: Hepatocyte; assay: Inhibition of TGF-beta1 induced apoptosis in C57/B6J mouse primary hepatocytes assessed as live cells at 50 uM by Annexin-V-FITC-H and PI staining based flow cytometry analysis (reference value: 66.08 %); assay type: functional; parameters: scale not given: the % may be the effect or the level left
[25] = test system: Mus musculus; assay: Inhibition of apoptosis in CCL-4 induced liver fibrosis C57/B6J mouse model at 100 mg/kg/day, ip measured after 72 hrs post last dose; assay type: functional, organism-based
[26] = test system: Hepatocyte; assay: Inhibition of TGF-beta1 induced apoptosis in C57/B6J mouse primary hepatocytes assessed as early apoptotic cells by Annexin-V-FITC-H and PI staining based flow cytometry analysis (reference value: 19.89 %); assay type: functional; parameters: scale not given: the % may be the effect or the level left
[27] = test system: Hepatocyte; assay: Inhibition of TGF-beta1 induced apoptosis in C57/B6J mouse primary hepatocytes assessed as early apoptotic cells at 25 uM by Annexin-V-FITC-H and PI staining based flow cytometry analysis (reference value: 18.71 %); assay type: functional; parameters: scale not given: the % may be the effect or the level left
[28] = test system: Mus musculus; assay: Antifibrotic activity in CCL-4 induced liver fibrosis C57/B6J mouse model assessed as increase in albumin level in serum at 100 mg/kg/day, ip measured after 72 hrs post last dose by ELISA; assay type: functional, organism-based
[29] = test system: Hepatocyte; assay: Inhibition of TGF-beta1 induced apoptosis in C57/B6J mouse primary hepatocytes assessed as early apoptotic cells at 10 uM by Annexin-V-FITC-H and PI staining based flow cytometry analysis (reference value: 18.71 %); assay type: functional; parameters: scale not given: the % may be the effect or the level left
[30] = test system: Hepatocyte; assay: Inhibition of TGF-beta1 induced apoptosis in C57/B6J mouse primary hepatocytes assessed as dead cells at 10 uM by Annexin-V-FITC-H and PI staining based flow cytometry analysis (reference value: 3.09 %); assay type: functional; parameters: scale not given: the % may be the effect or the level left
[31] = test system: Hepatocyte; assay: Inhibition of TGF-beta1 induced apoptosis in C57/B6J mouse primary hepatocytes assessed as late apoptotic cells by Annexin-V-FITC-H and PI staining based flow cytometry analysis (reference value: 12.03 %); assay type: functional; parameters: scale not given: the % may be the effect or the level left
[32] = test system: Mus musculus; assay: Antifibrotic activity in CCL-4 induced liver fibrosis C57/B6J mouse model assessed as reduction in serum AST level at 100 mg/kg/day, ip measured after 72 hrs post last dose by ELISA; assay type: functional, organism-based
[33] = test system: HepG2; assay: Downregulation of miR-190a-5p expression in TGF-beta induced human HepG2 cells at 10 to 50 uM incubated for 4 hrs by qRT-PCR analysis; assay type: functional, cell-based; conditions: dose 10-50 µM
[34] = test system: Hepatocyte; assay: Inhibition of TGF-beta1 induced apoptosis in C57/B6J mouse primary hepatocytes assessed as live cells by Annexin-V-FITC-H and PI staining based flow cytometry analysis (reference value: 64.40 %); assay type: functional; parameters: scale not given: the % may be the effect or the level left
[35] = test system: Mus musculus; assay: Antifibrotic activity in CCL-4 induced liver fibrosis C57/B6J mouse model assessed as reduction in disorganized and interlaced fibers at 100 mg/kg/day, ip measured after 72 hrs post last dose by HE/Sirus red/TUNEL staining based analysis; assay type: functional, organism-based
[36] = test system: Hepatocyte; assay: Inhibition of TGF-beta1 induced apoptosis in C57/B6J mouse primary hepatocytes assessed as live cells at 10 uM by Annexin-V-FITC-H and PI staining based flow cytometry analysis (reference value: 66.08 %); assay type: functional; parameters: scale not given: the % may be the effect or the level left
[37] = test system: Hepatocyte; assay: Inhibition of TGF-beta1 induced apoptosis in C57/B6J mouse primary hepatocytes assessed as dead cells at 25 uM by Annexin-V-FITC-H and PI staining based flow cytometry analysis (reference value: 3.09 %); assay type: functional; parameters: scale not given: the % may be the effect or the level left
[38] = test system: Hepatocyte; assay: Inhibition of TGF-beta1 induced apoptosis in C57/B6J mouse primary hepatocytes assessed as late apoptotic cells at 25 uM by Annexin-V-FITC-H and PI staining based flow cytometry analysis (reference value: 12.12 %); assay type: functional; parameters: scale not given: the % may be the effect or the level left
[39] = test system: Mus musculus; assay: Antifibrotic activity in CCL-4 induced liver fibrosis C57/B6J mouse model assessed as increase in HGF expression at 100 mg/kg/day, ip measured after 72 hrs post last dose by Western blot analysis; assay type: functional, organism-based
[40] = test system: Mus musculus; assay: Antifibrotic activity in CCL-4 induced liver fibrosis C57/B6J mouse model assessed as reduction in serum ALT level at 100 mg/kg/day, ip measured after 72 hrs post last dose by ELISA; assay type: functional, organism-based
[41] = test system: Mus musculus; assay: Antifibrotic activity in CCL-4 induced liver fibrosis C57/B6J mouse model assessed as reduction in hydroxyproline level in liver at 100 mg/kg/day, ip measured after 72 hrs post last dose; assay type: functional, organism-based

Q: With `CC1CN(CC2CCN(Cc3ccccc3)CC2)C(=O)N(c2cccc(C(=N)N)c2)C1.O=C(O)C(F)(F)F` (stereo unspecified) as the compound, how does the Activity [1] read?
A: Active

Q: What about the Activity [2] of the same compound?
A: 18.6%

Q: And the Activity [3]?
A: 64.46%

Q: And the Activity [4]?
A: Active

Q: What about the Activity [5] of the same compound?
A: Active

Q: What about the Activity [6] of the same compound?
A: Active

Q: What about the Activity [7] of the same compound?
A: 3.35%

Q: What about the Activity [8] of the same compound?
A: 13.59%

Q: What does the source list for `Oc1ccc(/C=C/c2cc(O)cc(O)c2)cc1` [RESVERATROL]?
A: Activity [9]: 7.99%; inhibition [10]: Active; Activity [11]: 0.95%; Activity [12]: 0.64%; Activity [13]: Active; Activity [14]: Active; Activity [15]: 70.1%; inhibition [16]: Active; Activity [17]: 11.38%; Activity [18]: 1.12%; Activity [19]: 17.41%; Activity [20]: 11.36%; Activity [21]: 6.54%; Activity [22]: Active; Activity [23]: 75.96%; Activity [24]: 84.53%; inhibition [25]: Active; Activity [26]: 10.05%; Activity [27]: 12.59%; Activity [28]: Active; Activity [29]: 16.37%; Activity [30]: 2.44%; Activity [31]: 5.25%; Activity [32]: Active; Activity [33]: Active; Activity [34]: 83.06%; Activity [35]: Active; Activity [36]: 69.83%; Activity [37]: 1.49%; Activity [38]: 9.96%; Activity [39]: Active; Activity [40]: Active; Activity [41]: Active
